Source: patent US20240066131A1 (Protagonist Therapeutics, Inc., priority 2020, published 2024)
Starred links: 1 amine or outer side, 2 acyl side, 3 side chain; linkers in the order of their positions; H or OH if unused. Non-standard residues stand in square brackets, D forms with d. Residues, ends and D or L forms follow the SMILES beside them. Groups on a side chain read outwards from the residue. *: point of attachment. Ala(1H-tetrazol-5-yl) = N[C@@H](Cc1nnn[nH]1)C(=O)O; C18 diacid = O=C(O)CCCCCCCCCCCCCCCCC(=O)*; X15 = O=C([C@H](CCc1nnn[nH]1)N[*:1])[*:2]; X8 = O=C([C@H](CCc1nn[nH]n1)N[*:1])[*:2]; Dip = N[C@H](C(=O)O)C(c1ccccc1)c1ccccc1; γGlu = O=C(O)[C@H](CCC(=O)[*:2])N[*:1]; His(τ-Me) = Cn1cnc(C[C@H](N)C(=O)O)c1; Gly(NCH2CH2Ph) = O=C(O)CNCCc1ccccc1; Palmitoyl = CCCCCCCCCCCCCCCC(=O)*; Myristoyl = CCCCCCCCCCCCCC(=O)*; β3hF = N[C@H](CC(=O)O)Cc1ccccc1; Lauroyl = CCCCCCCCCCCC(=O)*; Isovaleryl = CC(C)CC(=O)*; AEEA = NCCOCCOCC(=O)O; NHBn = c1ccc(CN*)cc1; Ahx = NCCCCCC(=O)O; NHPr = CCCN*

target: T1, ferroportin (Homo sapiens, UniProt Q9NP59); test: FPN activity assay: internalization/degradation of ferroportin-GFP in stably transfected HEK293 cells (loss of GFP fluorescence); type: cell-based; details: Table 6A; read-out: FPN EC50
T1 sequence (Q9NP59 1-571): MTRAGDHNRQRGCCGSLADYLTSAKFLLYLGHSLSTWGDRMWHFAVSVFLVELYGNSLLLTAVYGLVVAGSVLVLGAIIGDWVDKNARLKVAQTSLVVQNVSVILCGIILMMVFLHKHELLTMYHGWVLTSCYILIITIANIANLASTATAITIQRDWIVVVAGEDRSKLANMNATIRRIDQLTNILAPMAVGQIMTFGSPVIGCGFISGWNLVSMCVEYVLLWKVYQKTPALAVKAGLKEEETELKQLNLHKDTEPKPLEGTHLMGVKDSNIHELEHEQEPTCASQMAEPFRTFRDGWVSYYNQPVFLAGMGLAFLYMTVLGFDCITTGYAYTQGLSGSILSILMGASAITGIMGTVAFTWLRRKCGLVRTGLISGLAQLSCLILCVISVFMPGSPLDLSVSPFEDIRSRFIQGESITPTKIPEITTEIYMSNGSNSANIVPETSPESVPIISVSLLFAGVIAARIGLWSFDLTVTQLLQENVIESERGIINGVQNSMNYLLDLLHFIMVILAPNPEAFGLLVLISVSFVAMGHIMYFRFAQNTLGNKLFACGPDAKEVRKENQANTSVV
Description: Following internalization, the ferroporin protein is degraded.
A retro inverse peptide is a peptide with a reversed sequence in all D amino acids. An example is that Hy-Glu-Thr-His-NH2 becomes Hy-DHis-DThr-DGlu-NH2. The EC50 of these reference compounds for ferroportin internalization/degradation was determined according to the FPN activity assay described above. These peptides served as control standards.

Structure (SMILES)	DC50
CC[C@H](C)[C@H](NC(=O)[C@H](C)NC(=O)[C@@H]1CCCN1C(=O)[C@@H](NC(=O)[C@H](Cc1c[nH]cn1)NC(=O)[C@@H](NC(=O)[C@H](CCC(=O)O)NC(=O)CC(C)C)[C@@H](C)O)C(c1ccccc1)c1ccccc1)C(=O)N[C@@H](CCCCNC(C)=O)C(N)=O [compound 12] (Isovaleryl-ETH[Dip]PAIK(Ac)-NH2)	1040 nM
CC[C@H](C)[C@H](NC(=O)[C@H](C)NC(=O)[C@@H]1CCCN1C(=O)[C@@H](NC(=O)[C@H](Cc1c[nH]cn1)NC(=O)[C@@H](NC(=O)[C@H](CCc1nnn[nH]1)NC(=O)CC(C)C)[C@@H](C)O)C(c1ccccc1)c1ccccc1)C(=O)N[C@@H](CCCCNC(C)=O)C(=O)N[C@H](CC(=O)N[C@H](CCCCN)C(=O)N[C@@H](C)C(N)=O)Cc1ccccc1 [compound 38] (Isovaleryl-[X15]TH[Dip]PAIK(Ac)[β3hF][dK]A-NH2)	117 nM
CCCCCCCCCCCCCCCC(=O)NCCCCCC(=O)NCCCC[C@H](NC(=O)[C@@H](NC(=O)[C@H](C)NC(=O)[C@@H]1CCCN1C(=O)[C@@H](NC(=O)[C@H](Cc1c[nH]cn1)NC(=O)[C@@H](NC(=O)[C@H](CCC(=O)O)NC(=O)CC(C)C)[C@@H](C)O)C(c1ccccc1)c1ccccc1)[C@@H](C)CC)C(=O)NCc1ccccc1 [compound 52] (Isovaleryl-ETH[Dip]PAIK([Ahx-Palmitoyl])-NHBn)	162 nM
CCCCCCCCCCCCCCCC(=O)NCCCCCC(=O)NCCCC[C@H](NC(=O)[C@@H](NC(=O)[C@H](C)NC(=O)[C@@H]1CCCN1C(=O)[C@@H](NC(=O)[C@H](Cc1c[nH]cn1)NC(=O)[C@@H](NC(=O)[C@H](CCC(=O)O)NC(=O)CC(C)C)[C@@H](C)O)C(c1ccccc1)c1ccccc1)[C@@H](C)CC)C(=O)N[C@H](CC(N)=O)Cc1ccccc1 [SEQ ID No. 9, Isovaleric Acid-E-T-H-[Dpa]-P-A-I-[Lys(Ahx_Palm)]-[bhPhe]-NH2] (Isovaleryl-ETH[Dip]PAIK([Ahx-Palmitoyl])[β3hF]-NH2)	31.9 nM
CCCCCCCCCCCCCCCC(=O)NCCCCCC(=O)NCCCC[C@H](NC(=O)[C@@H](NC(=O)[C@H](C)NC(=O)[C@@H]1CCCN1C(=O)[C@@H](NC(=O)[C@H](Cc1c[nH]cn1)NC(=O)[C@@H](NC(=O)[C@H](CCC(=O)O)NC(=O)CC(C)C)[C@@H](C)O)C(c1ccccc1)c1ccccc1)[C@@H](C)CC)C(=O)N(CCc1ccccc1)CC(N)=O [compound 93] (Isovaleryl-ETH[Dip]PAIK([Ahx-Palmitoyl])[Gly(NCH2CH2Ph)]-NH2)	31.9 nM
CC[C@H](C)[C@H](NC(=O)[C@H](C)NC(=O)[C@@H]1CCCN1C(=O)[C@@H](NC(=O)[C@H](Cc1cn(C)cn1)NC(=O)[C@@H](NC(=O)[C@H](CCc1nn[nH]n1)NC(=O)CC(C)C)[C@@H](C)O)C(c1ccccc1)c1ccccc1)C(=O)N[C@@H](CCCCNC(C)=O)C(=O)N[C@H](CC(=O)N[C@H](CCCCN)C(=O)N[C@@H](C)C(N)=O)Cc1ccccc1 [compound 40] (Isovaleryl-[X8]T[His(τ-Me)][Dip]PAIK(Ac)[β3hF][dK]A-NH2)	> 3000 nM
CC[C@H](C)[C@H](NC(=O)[C@H](C)NC(=O)[C@@H]1CCCN1C(=O)[C@@H](NC(=O)[C@H](Cc1cn(C)cn1)NC(=O)[C@@H](NC(=O)[C@H](Cc1nn[nH]n1)NC(=O)CC(C)C)[C@@H](C)O)C(c1ccccc1)c1ccccc1)C(=O)N[C@@H](CCCCNC(C)=O)C(=O)N[C@H](CC(=O)N[C@H](CCCCN)C(=O)N[C@@H](C)C(N)=O)Cc1ccccc1 [compound 39] (Isovaleryl-[Ala(1H-tetrazol-5-yl)]T[His(τ-Me)][Dip]PAIK(Ac)[β3hF][dK]A-NH2)	> 3000 nM
CCCCCCCCCCCC(=O)NCCCCCC(=O)NCCCC[C@H](NC(=O)[C@@H](NC(=O)[C@H](C)NC(=O)[C@@H]1CCCN1C(=O)[C@@H](NC(=O)[C@H](Cc1c[nH]cn1)NC(=O)[C@@H](NC(=O)[C@H](CCC(=O)O)NC(=O)CC(C)C)[C@@H](C)O)C(c1ccccc1)c1ccccc1)[C@@H](C)CC)C(=O)N[C@H](CC(N)=O)Cc1ccccc1 [compound 105] (Isovaleryl-ETH[Dip]PAIK([Ahx-Lauroyl])[β3hF]-NH2)	109 nM
CCCCCCCCCCCCCCCC(=O)NCCCCCC(=O)NCCCC[C@H](NC(=O)C[C@H](Cc1ccccc1)NC(=O)[C@@H](CCCCN)NC(=O)[C@@H](NC(=O)[C@H](CO)NC(=O)[C@@H]1CCCN1C(=O)[C@@H](NC(=O)[C@H](Cc1c[nH]cn1)NC(=O)[C@@H](NC(=O)[C@H](CCC(=O)O)NC(=O)CC(C)C)[C@@H](C)O)C(c1ccccc1)c1ccccc1)[C@@H](C)CC)C(N)=O [compound 20] (Isovaleryl-ETH[Dip]PSI[dK][β3hF]K([Ahx-Palmitoyl])-NH2)	46.3 nM

same assay, conditions: ferroportin-GFP HEK293 cells, compound incubated at least 18 hours; read-out: FPN IC50

Structure (SMILES)	DC50
CCCNC(=O)[C@H](CCCCNC(=O)COCCOCCNC(=O)COCCOCCNC(=O)CC[C@H](NC(=O)CCCCCCCCCCCCCCCCC(=O)O)C(=O)O)NC(=O)[C@@H](NC(=O)[C@H](Cc1c[nH]cn1)NC(=O)[C@@H](NC(=O)[C@H](CC(C)C)NC(=O)CC(C)C)[C@@H](C)O)C(c1ccccc1)c1ccccc1 [compound 228] (Isovaleryl-LTH[Dip]K([AEEA-AEEA-γGlu-C18 diacid])-NHPr)	> 3000 nM
CCCCCCCCCCCCCC(=O)NCCCCCC(=O)NCCCC[C@H](NC(=O)[C@@H](NC(=O)[C@H](C)NC(=O)[C@@H]1CCCN1C(=O)[C@H](Cc1ccccc1)NC(=O)[C@H](Cc1c[nH]cn1)NC(=O)[C@@H](NC(=O)[C@H](CCC(=O)O)NC(=O)CC(C)C)[C@@H](C)O)[C@@H](C)CC)C(=O)N[C@@H](Cc1ccccc1)C(=O)N[C@@H](CCC(=O)O)C(=O)N1CCC[C@H]1C(=O)N[C@@H](CCCNC(=N)N)C(=O)N[C@@H](CO)C(=O)N[C@@H](CCCCN)C(=O)NCC(=O)N[C@H](C)C(N)=O [compound 246] (Isovaleryl-ETHFPAIK([Ahx-Myristoyl])FEPRSKG[dA]-NH2)	1070 nM
